Measured values from patent US11046945B2, “Labeled glutaminase proteins, isolated glutaminase protein mutants, methods of use, and kit” (CORNELL UNIVERSITY, priority 2013, dated 2021).

How the values were obtained:
GAC = biological target: T1, GAC (Mus musculus, UniProt D3Z7P3); test: FRET assay of GAC tetramer formation (488-GAC donor, QSY 9-GAC acceptor); type: binding; settings: for effect on 488-GAC fluorescence emission in equilibrated 488-GAC/QSY 9-GAC mixture: 20 nM 488-GAC and 200 nM QSY 9-GAC
T1 construct: plasmid (residues 72-603 for GAC, 72-674 for KGA); His-tag with thrombin cleavage site (N, cleaved yes); made in house; host or cells: pET23a vector
T1 sequence (D3Z7P3 72-603 isoform D3Z7P3-2): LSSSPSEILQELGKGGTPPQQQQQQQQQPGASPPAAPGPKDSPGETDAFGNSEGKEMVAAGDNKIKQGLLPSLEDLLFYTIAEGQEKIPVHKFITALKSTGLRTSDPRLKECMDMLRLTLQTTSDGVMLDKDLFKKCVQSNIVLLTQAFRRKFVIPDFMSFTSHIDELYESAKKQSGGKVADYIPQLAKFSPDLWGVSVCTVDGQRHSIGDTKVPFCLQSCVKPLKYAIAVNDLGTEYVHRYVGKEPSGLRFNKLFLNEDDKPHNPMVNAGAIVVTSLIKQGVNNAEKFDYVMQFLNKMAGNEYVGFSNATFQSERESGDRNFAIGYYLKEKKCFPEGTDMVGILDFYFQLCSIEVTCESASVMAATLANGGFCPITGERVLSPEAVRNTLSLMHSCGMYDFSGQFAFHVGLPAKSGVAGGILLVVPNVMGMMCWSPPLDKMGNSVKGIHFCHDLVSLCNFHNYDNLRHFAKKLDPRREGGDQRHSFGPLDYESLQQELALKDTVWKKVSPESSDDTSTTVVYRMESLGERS
Source text: A mouse kidney type glutaminase isoform 1 (KGA, NP_001074550.1, which is hereby incorporated by reference in its entirety (SEQ ID NO:7)) and isoform 2 (GAC, NP_001106854.1, which is hereby incorporated by reference in its entirety (SEQ ID NO:3)) plasmid (residues 72-603 for GAC, 72-674 for KGA) was cloned into a pET23a vector containing an N-terminal histidine (His)-tag and thrombin cleavage site. The expressed protein was initially purified using Co^2+ affinity beads (Clontech), after which the His-tag was cleaved with human thrombin (Haemetologic Technologies) overnight at 4° C. and subsequently purified by anion exchange (GE healthcare) and gel filtration chromatography. Purified GAC or KGA was stored in a high salt containing buffer (20 mM Tris-HCl pH 8.5, 500 mM NaCl, 1 mM NaN3) and stored at −80° C. following snap freezing in liquid N2 for long term use. For labeling recombinant GAC or KGA with small molecule probes, 1.5 mg of enzyme was exchanged to 50 mM HEPES pH 7.2, 100 mM NaCl using a PD10 desalting column (GE healthcare) and incubated with 50 μM (5-fold excess of enzyme) of either ALEXA FLUOR® 488 succinimidyl ester or QSY® 9 succinimidyl ester (Molecular Probes) for 1 hr at 4° C. After 1 hr, the labeling reaction was quenched with 150 mM Tris-HCl pH 8.5 and unreacted probe was separated from labeled-enzyme using a PD10 desalting column eluting labeled-GAC back into the high salt containing buffer.
Fluorescence experiments were performed using a Varian Carry Eclipse Fluorometer in the counting mode. Excitation and emission wavelengths were 490 and 520 nm, respectively. Experiments were all prepared as one-mL samples and stirred continuously at 20° C. in 50 mM Tris-Acetate pH 8.5, 0.1 mM ethylenediaminetetraacetic acid (EDTA). For WT GAC titrations in the absence of inorganic phosphate, 10 nM 488-GAC was equilibrated followed by injection of 25 μL of the appropriate concentration of QSY® 9-GAC and was allowed to equilibrate for 10 minutes at which point 75 μL of the appropriate concentration of unlabeled WT GAC was added to give a concentration that was ten-times that of labeled-GAC (i.e., 10-fold excess). For FRET experiments prepared for inorganic phosphate titrations, a similar protocol was followed whereby 10 nM of 488-GAC was equilibrated with 400 nM QSY® 9-GAC followed by injection of 100 μL of the appropriate concentration of K2HPO4 prepared in 50 mM Tris-Acetate (pH=8.5) 0.1 mM EDTA buffer. To test whether purified mutants can form oligomers with WT GAC, 200 nM QSY® 9-D391K-GAC or 200 nM QSY® 9-K316E-D391K-R459E was added to an equilibrated sample of 20 nM 488-WT GAC. Likewise, when assaying the effects of BPTES and 968 on oligomer formation, BPTES or 968 (10 μM or 25 μM, respectively) was added following equilibration of a sample of 200 nM of QSY® 9-WT GAC and 20 nM 488-WT GAC. Both BPTES and 968 were prepared in DMSO, and appropriate dilutions were made so that less than 2% (v/v) DMSO was added to an experimental sample.

Dbl-transformed MEFs = settings: adapted from Wang et al. 2010; cited from earlier work

| Compound | effect on 488-GAC fluorescence emission in equilibrated 488-GAC/QSY 9-GAC mixture (GAC; 10 μM BPTES) | reversal of induced tetramers/quenching by excess unlabeled GAC (GAC; 10 μM BPTES, 10-fold excess unlabeled GAC) | effect on 488-GAC fluorescence emission in equilibrated 488-GAC/QSY 9-GAC mixture (GAC; 25 μM 968) | inhibition of the ability of Dbl-transformed MEFs to form foci (Dbl-transformed MEFs) |
| --- | --- | --- | --- | --- |
| O=C(Cc1ccccc1)Nc1nnc(CCSCCc2nnc(NC(=O)Cc3ccccc3)s2)s1 [BPTES] | immediate quenching | stable and not disrupted | – | – |
| CN(C)c1ccc(C2Nc3ccc4ccccc4c3C3=C2C(=O)CC(C)(C)C3)cc1Br (stereo not shown) [compound 968] | – | – | significant change in the fluorescence emission | dose dependent |
